# Activity calls are given as the source filed them. No cut-off for these calls is given here.
# System: Staphylococcus aureus
# Assay: Antivirulence activity against methicillin-resistant Staphylococcus aureus USA300 LAC assessed as inhibition of delta toxin production incubated for 22 hrs by LC-MS analysis
# Type: functional, organism-based
# Conditions: dose 0-100 µg/ml
row,SMILES,Activity
1,COC(=O)[C@H]1O[C@@H](Oc2cccc3c2C(=O)O[C@H]3c2c(O)ccc3c2C(=O)C[C@@H](C)C3)[C@H](O)[C@@H](O)[C@@H]1O,inactive
2,C[C@@H]1CC(=O)c2c(ccc3c2C(=O)c2cccc(O[C@@H]4O[C@H](C(=O)O)[C@@H](O)[C@H](O)[C@H]4O)c2C3=O)C1,Dose-Dependent Effect
3,COC(=O)[C@H]1O[C@@H](Oc2cccc3c2C(=O)c2ccc4c(c2C3=O)C(=O)C[C@@H](C)C4)[C@H](O)[C@@H](O)[C@@H]1O,Dose-Dependent Effect

# System: Staphylococcus aureus
# Assay: Antivirulence activity against methicillin-resistant Staphylococcus aureus USA300 LAC assessed as inhibition of biofilm formation incubated for 22 hrs by crystal violet staining based assay
# Type: functional, organism-based
# Conditions: dose 0-100 µg/ml
row,SMILES,Activity
1,COC(=O)[C@H]1O[C@@H](Oc2cccc3c2C(=O)O[C@H]3c2c(O)ccc3c2C(=O)C[C@@H](C)C3)[C@H](O)[C@@H](O)[C@@H]1O,inactive
2,C[C@@H]1CC(=O)c2c(ccc3c2C(=O)c2cccc(O[C@@H]4O[C@H](C(=O)O)[C@@H](O)[C@H](O)[C@H]4O)c2C3=O)C1,Dose-Dependent Effect
3,COC(=O)[C@H]1O[C@@H](Oc2cccc3c2C(=O)c2ccc4c(c2C3=O)C(=O)C[C@@H](C)C4)[C@H](O)[C@@H](O)[C@@H]1O,Dose-Dependent Effect

# System: Staphylococcus aureus
# Assay: Antivirulence activity against methicillin-resistant Staphylococcus aureus USA300 LAC assessed as inhibition of phenol-soluble modulin alpha1-4 production incubated for 22 hrs by LC-MS analysis
# Type: functional, organism-based
# Conditions: dose 0-100 µg/ml
row,SMILES,Activity
1,COC(=O)[C@H]1O[C@@H](Oc2cccc3c2C(=O)O[C@H]3c2c(O)ccc3c2C(=O)C[C@@H](C)C3)[C@H](O)[C@@H](O)[C@@H]1O,inactive
2,C[C@@H]1CC(=O)c2c(ccc3c2C(=O)c2cccc(O[C@@H]4O[C@H](C(=O)O)[C@@H](O)[C@H](O)[C@H]4O)c2C3=O)C1,Dose-Dependent Effect
3,COC(=O)[C@H]1O[C@@H](Oc2cccc3c2C(=O)c2ccc4c(c2C3=O)C(=O)C[C@@H](C)C4)[C@H](O)[C@@H](O)[C@@H]1O,Dose-Dependent Effect

# — ChEMBL document CHEMBL5390205, “Acidonemycins A-C, Glycosylated Angucyclines with Antivirulence Activity Produced by the Acidic Culture of Streptomyces indonesiensis” (J Nat Prod, 2023)
